In patent publication US20210177751A1, “HYPOTONIC HYDROGEL FORMULATIONS FOR ENHANCED TRANSPORT OF ACTIVE AGENTS AT MUCOSAL SURFACES” (The Johns Hopkins University, priority 2017, published 2021):

Columns and labels:
C57/B6 mice = test: laser-induced choroidal neovascularization (CNV) in mice; type: in vivo, mouse; details: topical daily for 7 days
Procedure: C57/B6 mice where used to test the topical delivery of sunitinib malate (5 uL at 4 mg/mL) and acriflavine (5 uL at 5 mg/mL) in preventing choroidal neovascularization (CNV) in mice after laser induced rupture of Bruch's membrane in three locations. After laser, both drugs either dissolved in 12% F127 or a aqueous vehicle control (saline or water), were dosed daily for 7 days.

[1] = tested on: retinal ganglion cells (RGCs); test: optic nerve crush after 5 daily topical doses, pigmented rats; type: in vivo, rat (Brown Norway); details: in 12% F127, daily for 5 days before crush; 14 days after crush; pigmented rats (Brown Norway)
Procedure: Rats were dosed topically with sunitinib malate (5 uL at 4 mg/mL) in 12% F127 daily for 5 days unilaterally. Then, the optic nerve head was exposed and crushed unilaterally and the contralateral eye was used as the control for comparison. 14 days after crushing the nerve (without additional topical dosing), the tissues were isolated for qPCR for genes expressed by retinal ganglion cells (RGCs).

[2] = tested on: retinal ganglion cells (RGCs); test: optic nerve crush with once weekly topical dosing; type: in vivo, rat (Brown Norway); details: Day 22
Procedure: Pigmented rats (Brown Norway) were dosed topically (5 uL at 4 mg/mL) with sunitinib malate in 12% F127 or in saline once weekly unilaterally. The optic nerve head was exposed and crushed unilaterally on Day 8 and the contralateral eye was used as the control for comparison. 14 days after crushing the nerve (Day 22), the tissues were isolated for qPCR for genes expressed by retinal ganglion cells (RGCs).

[3] = ocular tissue distribution in Dutch belted rabbits (LC-MS); type: in vivo, rabbit; details: 4 mg/ml in 12% F127, daily for 14 days; tissues 6 h after final dose
Procedure: (§1) Sunitnib malate was dissolved in 12% F127 at a concentration of 4 mg/ml and dosed topically to pigmented (Dutch belted) rabbits and pigmented pigs (juvenile farm pigs) once per day for a total of 14 days or 5 days, respectively. Dosing in both rabbits and pigs occurred without anesthesia and 50 uL or 50˜100 uL of an eye drop was administered, respectively. However, dosing in pigs occurred while distracted with food. Tissues were collected 6 h after the final dose for rabbits and 1 h after the final dose for pigs. The drug concentrations were measured by LC-MS.

[4] = ocular tissue distribution in farm pigs (LC-MS); type: in vivo, pig; details: 4 mg/ml in 12% F127, daily for 5 days; tissues 1 h after final dose
Procedure: as §1

[5] = dissolved in aqueous vehicle control (saline or water)

Molecule | suppression of choroidal neovascularization (C57/B6 mice; dissolved in 12% F127) | suppression of choroidal neovascularization (C57/B6 mice; [5]) | protection of RGCs (qPCR for RGC genes) [1] | protection of RGCs (qPCR for RGC genes) ([2]; in 12% F127, once weekly) | protection of RGCs (qPCR for RGC genes) ([2]; in saline, once weekly) | sunitinib and N-desethyl sunitinib levels in ocular tissues and fluids [3] | sunitinib and N-desethyl sunitinib levels in ocular tissues and fluids [4]
CCN(CC)CCNC(=O)c1c(C)[nH]c(/C=C2\C(=O)Nc3ccc(F)cc32)c1C [sunitinib malate] | efficacious in suppressing neovascularization in the choroid | Only the formulations containing 12% F127 were efficacious | protection of RGCs | Protection of RGCs was only observed when sunitinib malate was dosed in 12% F127 | not when sunitinib malate was dosed in saline | Therapeutically relevant levels of drug were found in the anterior and posterior segments | Therapeutically relevant levels of drug were found in the anterior and posterior segments
acriflavine | efficacious in suppressing neovascularization in the choroid | Only the formulations containing 12% F127 were efficacious |  |  |  |  | 
